Results from the supplement of paper PMC10307832.

Key:
Experiment in all cases: relative viability (nuclei count vs DMSO), 5 days (fraction); higher = more cells survive
AT9283 + Linsitinib = compound: O=C(Nc1c[nH]nc1-c1nc2ccc(CN3CCOCC3)cc2[nH]1)NC1CC1 [AT9283] + C[C@]1(O)C[C@@H](c2nc(-c3ccc4ccc(-c5ccccc5)nc4c3)c3c(N)nccn32)C1 [Linsitinib] (partner 1 µM)
Method in brief: (§1)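 Lung cancer cell lines were seeded in 1536-well plates and dosed by pin tool the next day, with either a single drug or a fixed anchor-drug dose combined with five library-drug doses (not always all listed) spaced in √10 steps. Five days later, one step fixed the cells and stained their nuclei (final 0.05% Triton X-100, 1% formaldehyde, 1 ug/ml Hoechst), and nuclei were counted on 4× images. Relative viability is the nuclei count in treated wells divided by the count in vehicle wells, and each value is the median of duplicate plates.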

Erlotinib + Foretinib = compound: C#Cc1cccc(Nc2ncnc3cc(OCCOC)c(OCCOC)cc23)c1 [Erlotinib] + COc1cc2c(Oc3ccc(NC(=O)C4(C(=O)Nc5ccc(F)cc5)CC4)cc3F)ccnc2cc1OCCCN1CCOCC1 [Foretinib] (partner 0.25 µM)
Method in brief: as §1

Erlotinib + Luminespib = compound: C#Cc1cccc(Nc2ncnc3cc(OCCOC)c(OCCOC)cc23)c1 [Erlotinib] + CCNC(=O)c1noc(-c2cc(C(C)C)c(O)cc2O)c1-c1ccc(CN2CCOCC2)cc1 [Luminespib] (partner 0.01 µM)
Method in brief: as §1

AT9283 + Bortezomib = compound: O=C(Nc1c[nH]nc1-c1nc2ccc(CN3CCOCC3)cc2[nH]1)NC1CC1 [AT9283] + CC(C)C[C@H](NC(=O)[C@H](Cc1ccccc1)NC(=O)c1cnccn1)B(O)O [Bortezomib] (partner 0.002 µM)
Method in brief: as §1

Erlotinib + Alpelisib = compound: C#Cc1cccc(Nc2ncnc3cc(OCCOC)c(OCCOC)cc23)c1 [Erlotinib] + Cc1nc(NC(=O)N2CCC[C@H]2C(N)=O)sc1-c1ccnc(C(C)(C)C(F)(F)F)c1 [Alpelisib] (partner 2 µM)
Method in brief: as §1

Row | Cell Line | relative viability (AT9283 + Linsitinib; first compound 0.003 µM) | relative viability (AT9283 + Linsitinib; first compound 0.03 µM) | relative viability (AT9283 + Linsitinib; first compound 0.09487 µM) | relative viability (AT9283 + Linsitinib; first compound 0.3 µM) | relative viability (Erlotinib + Foretinib; first compound 0.02 µM) | relative viability (Erlotinib + Foretinib; first compound 0.2 µM) | relative viability (Erlotinib + Foretinib; first compound 0.6325 µM) | relative viability (Erlotinib + Foretinib; first compound 2 µM) | relative viability (Erlotinib + Luminespib; first compound 0.02 µM) | relative viability (Erlotinib + Luminespib; first compound 0.2 µM) | relative viability (Erlotinib + Luminespib; first compound 0.6325 µM) | relative viability (Erlotinib + Luminespib; first compound 2 µM) | relative viability (AT9283 + Bortezomib; first compound 0.003 µM) | relative viability (AT9283 + Bortezomib; first compound 0.03 µM) | relative viability (AT9283 + Bortezomib; first compound 0.09487 µM) | relative viability (AT9283 + Bortezomib; first compound 0.3 µM) | relative viability (Erlotinib + Alpelisib; first compound 0.02 µM) | relative viability (Erlotinib + Alpelisib; first compound 0.2 µM) | relative viability (Erlotinib + Alpelisib; first compound 0.6325 µM) | relative viability (Erlotinib + Alpelisib; first compound 2 µM)
1 | COR-L23 | 0.867 | 0.152 | 0.0945 | 0.135 | 1.11 | 0.947 | 1.18 | 0.928 | 0.686 | 0.637 | 0.693 | 0.588 | 1.05 | 0.664 | 0.23 | 0.152 | 0.84 | 0.719 | 0.836 | 0.553
2 | NCI-H520 | 0.926 | 0.37 | 0.291 | 0.181 | 0.803 | 0.926 | 0.749 | 0.745 | 0.242 | 0.23 | 0.253 | 0.248 | 0.574 | 0.241 | 0.182 | 0.168 | 0.932 | 0.934 | 1.17 | 
3 | NCI-H3122 | 0.963 | 0.885 | 0.346 | 0.166 | 0.982 | 0.989 | 0.963 | 0.884 | 0.0866 | 0.089 | 0.0884 | 0.107 | 1.04 | 1.02 | 0.548 | 0.37 |  | 0.882 | 0.872 | 0.736
4 | LXF-289 | 1 | 0.47 | 0.132 | 0.12 | 0.924 | 0.937 |  | 0.874 | 0.813 | 0.622 | 0.707 | 0.634 | 0.972 | 0.992 | 0.184 | 0.131 | 1.08 | 1 | 0.976 | 0.913
5 | NCI-H2126 | 0.685 | 0.758 | 0.714 | 0.276 | 1.29 | 1.05 | 0.947 | 0.764 | 0.882 | 0.648 | 0.589 | 0.635 | 1.11 | 1.09 | 1.1 | 0.528 | 0.781 | 0.644 | 0.537 | 0.379
6 | HOP-62 | 0.927 | 0.721 | 0.178 | 0.173 | 1.22 | 1.08 | 1.15 | 0.89 | 0.988 | 0.949 | 0.855 | 0.881 | 0.593 | 0.651 | 0.68 | 0.158 |  | 1.05 | 1.05 | 0.977
7 | NCI-H596 | 1.06 | 1.01 | 0.912 | 0.564 | 0.759 | 0.847 | 0.995 | 0.758 | 1.07 | 0.848 | 0.893 | 0.878 | 0.999 | 1.14 | 0.947 | 0.772 | 0.444 | 0.456 | 0.492 | 0.376
8 | NCI-H2023 | 0.765 | 0.308 | 0.135 | 0.132 | 0.754 | 0.607 | 0.589 | 0.406 | 0.721 | 0.72 | 0.81 | 0.629 | 1 | 0.918 | 0.174 | 0.123 | 0.64 | 0.525 | 0.453 | 0.401
9 | SK-LU-1 | 1.1 | 0.349 | 0.323 | 0.356 | 0.961 | 0.975 | 0.997 | 0.699 | 0.21 | 0.208 | 0.188 | 0.202 | 1.21 | 1.02 | 0.646 | 0.279 | 1.36 | 1.01 | 0.962 | 0.631
10 | NCI-H661 | 0.513 | 0.474 | 0.252 | 0.295 | 1 | 0.921 | 1.1 | 0.705 | 0.903 | 0.933 | 0.882 | 0.736 | 0.779 | 0.531 | 0.338 | 0.346 | 0.545 | 0.556 | 0.782 | 0.426
11 | NCI-H322M | 0.932 | 0.682 | 0.478 | 0.425 | 0.925 | 0.619 | 0.565 | 0.45 | 0.806 | 0.595 | 0.528 | 0.443 | 1.25 | 1.34 | 0.861 | 0.407 | 0.693 | 0.745 | 0.589 | 0.335
12 | LCLC-97TM1 | 0.184 | 0.156 | 0.107 | 0.0936 | 0.894 | 0.89 | 0.963 | 0.791 | 0.901 | 0.798 | 0.948 | 0.824 | 0.49 | 0.09 | 0.139 | 0.0748 | 0.218 |  | 0.316 | 0.259
13 | NCI-H2405 | 1.06 | 0.632 | 0.315 | 0.221 |  | 1.02 | 1.09 | 1.01 | 0.6 | 0.655 | 0.598 | 0.755 | 0.875 | 0.967 | 0.721 | 0.33 | 0.853 | 0.772 | 0.822 | 0.698
14 | NCI-H647 | 1.11 | 0.17 | 0.151 | 0.11 | 1.13 | 1.04 | 1.32 | 1.04 | 0.218 | 0.119 | 0.142 | 0.0816 | 0.822 | 0.145 | 0.13 | 0.0938 | 0.955 | 1.18 |  | 1.02
15 | NCI-H650 | 0.7 | 0.601 | 0.262 | 0.164 | 1.03 | 1.02 | 1.19 | 0.924 | 0.822 | 0.783 | 0.679 | 0.794 | 0.652 | 0.775 | 0.561 | 0.14 | 1.22 | 1.25 | 1.11 | 1.06
16 | LU99A | 0.409 | 0.196 | 0.165 | 0.165 | 0.861 | 0.833 | 0.829 | 0.678 | 0.27 | 0.257 | 0.231 | 0.223 | 1.04 | 0.463 | 0.162 | 0.229 | 0.644 | 0.478 | 0.562 | 0.333
